The values below come from patent publication US20220332763A1, “FUSED POLYPEPTIDE AND USE THEREOF” (NANJING ANJI BIOLOGICAL TECHNOLOGY CO., LTD., priority 2019, published 2022).

Assay [1] deals with SD rats with bleomycin-induced pulmonary fibrosis. The experiment in a line: Bleomycin-induced pulmonary fibrosis animal model. To be noted: for Survival rate (%): dosage 10 mg/kg in Table 2, administration 14 days, model group 50. Format: in vivo. The method, then: SD rats were anesthetized by intraperitoneal injection of 1 mL/100 g 4% chloral hydrate. After anesthesia, the rats were fixed and their necks were disinfected by using cotton with 75% alcohol. The skin of the rat neck was longitudinally cut with scissors, and the fascia and muscle were longitudinally bluntly torn with tweezers to expose the trachea. A syringe was inserted into the trachea to inject 5 mg/kg bleomycin, while a blank group was injected with an equal amount of normal saline. Then a rat plate was quickly erected and rotated, the rats' breathing was observed, the neck wound was sterilized after rotation and was sewn, and an amoxicillin anti-inflammatory drug was sprinkled on the suture. After the operation, the rats were put back into a dry and clean cage for resting, waiting was performed for awakening. The rats were awakened after about 1-2 hours, and then fed normally. On the 7th day after modeling, modeling group animals randomly fell into a model group, a Nintedanib positive drug group, polypeptide I, II, III, IV, V, VI dosage groups, and a normal control group, and the groups were administered separately for an administration cycle of 14 days. Living situations of rats were observed every day and their weights were weighed. After administration for 14 days, the SD rats were dissected, the lung tissue was taken, and the right lung tissue was placed in a tissue fixative only for fixation, and HE staining and Masson staining and slice analysis were performed.

Assay [2] deals with LX-2 hepatic stellate cells. The experiment in a line: In vitro hepatic fibrosis model, MTT assay. To be noted: 1 μmol/L; for Inhibition of proliferation (in words): 24 hours and 48 hours, Example 2; for Optical density value, 12 h / Optical density value, 24 h / Optical density value, 48 h: LX-2 cells, MTT, OD at 570 nm; for Optical density value, 12 h: blank group 0.456 ± 0.012; for Optical density value, 24 h: blank group 0.548 ± 0.01; for Optical density value, 48 h: blank group 0.812 ± 0.016. Format: cell-based. On the procedure:
(§1) The inhibitory effect of a polypeptide on LX-2 hepatic stellate cells was detected by MTT assay. Cells were cultured in a 1640 medium containing 10% of FBS, the […] was made into 4×10^5/mL cell suspension, and 100 μL per well was inoculated into a 96-well plate. After the cells adhered to the wall, the medium was replaced with a serum-free 1640 medium, and the serum-free medium was discarded after 24 hours. The cells were cultured with different polypeptides of 1 μmol/L, and 5 multiple wells were set for each concentration. After 12, 24 and 48 hours separately, 10 μL of MTT was added to each well. After 4 hours, MTT was sucked out, and 150 μL of DMSO was added to each well. After reaction for 5 min, an OD value was measured at 570 nm by a microplate reader.
Background: Tetrazolium dyes change colour on reduction, which living cells bring about.

Assay [3] deals with cardiac fibroblasts of rats. As to the kind of experiment: Myocardial fibrosis model, MTT assay. Format: cell-based. The conditions noted are these: 1 μmol/L; for Inhibition of proliferation of cardiac fibroblasts of rats (in words): 24 hours and 48 hours; for Optical density value, 12 h / Optical density value, 24 h / Optical density value, 48 h: cardiac fibroblasts of rats, MTT, OD at 570 nm; for Optical density value, 12 h: blank group 0.353 ± 0.001; for Optical density value, 24 h: blank group 0.464 ± 0.018; for Optical density value, 48 h: blank group 0.896 ± 0.001. On the procedure:
as §1, with “cardiac fibroblasts of rats” for “LX-2 hepatic stellate cells”, “DMEM” for “1640”, “1×10^5/mL” for “4×10^5/mL”

The test system of the next assay is HYP. The experiment in a line: Bleomycin skin fibrosis model, HYP content in skin tissue. Format: in vivo, C57/BL black mice. To be noted: bleomycin skin fibrosis mice; 10 mg/kg subcutaneous twice a day, 28 days; FIG. 4. The method, then: Bleomycin (10 μg/mL) was injected subcutaneously every day for 28 days to form skin fibrosis. During the modeling period, the administration groups were given polypeptide drugs twice a day for treatment. After modeling, the mice were killed on the next day, and the skin tissue of the mouse back was taken to detect the content of HYP in the skin tissue.

In the next assay the test system is TGF-β1. The experiment in a line: Renal fibrosis animal model (ureter ligation), TGF-β1 in serum. Format: in vivo. The conditions noted are these: SD rats with renal fibrosis; 7.5 mg/kg subcutaneous twice a day, 14 days; FIG. 3. The method, then: A renal fibrosis animal model was established. SD rats were anesthetized with 4% chloral hydrate, injected with 1 mL/100 g intraperitoneally, fixed to an operation board, and sterilized in an operation area for later use. […] Muscular layers and abdominal walls were sewed layer by layer, the suture was disinfected with alcohol. After SD rats woke up, the rats were put into a cage for feeding. In the blank group, ureter was not ligated, and other steps were the same.
Then, the animals fell into a blank group, a model group, and polypeptide administration groups, with 10 animals in each group, and the administration was started on the second day after the operation, twice a day for 14 days. After administration for 14 days, blood was taken and supernatant was taken to detect the content of TGF-β1 in serum.

Where no end group is shown, it is not given here.

Consider `COC(=O)c1ccc2c(c1)NC(=O)/C2=C(\Nc1ccc(N(C)C(=O)CN2CCN(C)CC2)cc1)c1ccccc1` [Positive drug group, Nintedanib, reference compound], for which the “Survival rate (%)” value in assay [1] was determined as 90%.
Take “Ac-SDKPGGGGLSKLGGGGTSLDASIIWAMMQN (N-terminus assumed) [Polypeptide I, Ser-Asp-Lys-Pro-linker-Leu-Ser-Lys-Leu-linker-Thr-Ser-Leu-Asp-Ala-Ser-Ile-Ile-Trp-Ala-Met-Met-Gln-Asn]”: in assay [1], the “Survival rate (%)” value came out at 90%. Besides, in assay [1] (in words), the “Survival rate compared with model group / positive drug group” value is given as “equivalent to that of the positive drug group”. Besides, in assay [2], the “Inhibition of proliferation (in words)” value was “could inhibit the proliferation”; the “Optical density value, 12 h” value was 0.452 ± 0.008; the “Optical density value, 24 h” value is 0.542 ± 0.03; the “Optical density value, 48 h” value was 0.680 ± 0.014. Moreover, in assay [3], the “Inhibition of proliferation of cardiac fibroblasts of rats (in words)” value (“Inhibition of proliferation … of rats (in words)” below) is given as “could inhibit the proliferation”; the “Optical density value, 12 h” value was determined as 0.362 ± 0.006; the “Optical density value, 24 h” value was determined as 0.402 ± 0.002; the “Optical density value, 48 h” value is listed as 0.678 ± 0.002. Moreover, in the assay with HYP, the “Expression of HYP content in tissue versus model group” value is reported as “highly significantly different from the model group (*P<0.05)”. Moreover, the “Content of TGF-β1 in serum versus model group” value in the assay with TGF-β1 is listed as “highly significantly different from the model group (***P<0.001)”.
In the case of “Ac-SDKPGGGGTSLDASIIWAMMQNGGGGLSKL (N-terminus assumed) [Polypeptide II, Ser-Asp-Lys-Pro-linker-Thr-Ser-Leu-Asp-Ala-Ser-Ile-Ile-Trp-Ala-Met-Met-Gln-Asn-linker-Leu-Ser-Lys-Leu]”, the “Survival rate (%)” value in assay [1] was determined as 80%. Moreover, in assay [2], the “Inhibition of proliferation (in words)” value is reported as “could inhibit the proliferation”; the “Optical density value, 12 h” value is 0.463 ± 0.012; the “Optical density value, 24 h” value came to 0.394 ± 0.005; the “Optical density value, 48 h” value is on record as 0.578 ± 0.005. Besides, in assay [3], the “Inhibition of proliferation … of rats (in words)” value is listed as “could inhibit the proliferation”; the “Optical density value, 12 h” value amounted to 0.352 ± 0.004; the “Optical density value, 24 h” value stood at 0.367 ± 0.016; the “Optical density value, 48 h” value is reported as 0.568 ± 0.013. Further, the “Expression of HYP content in tissue versus model group” value with HYP is given as “highly significantly different from the model group (***P<0.001)”. Also, the “Content of TGF-β1 in serum versus model group” value in the assay with TGF-β1 is “highly significantly different from the model group (***P<0.001)”.
As to “LSKLGGGGSDKPGGGGTSLDASIIWAMMQN [Polypeptide V, Leu-Ser-Lys-Leu-linker-Ser-Asp-Lys-Pro-linker-Thr-Ser-Leu-Asp-Ala-Ser-Ile-Ile-Trp-Ala-Met-Met-Gln-Asn]”, the “Survival rate (%)” value in assay [1] stood at 70%. Also, in assay [2], the “Inhibition of proliferation (in words)” value was “could inhibit the proliferation”; the “Optical density value, 12 h” value amounted to 0.462 ± 0.004; the “Optical density value, 24 h” value is 0.477 ± 0.015; the “Optical density value, 48 h” value came out at 0.618 ± 0.015. Further, in assay [3], the “Inhibition of proliferation … of rats (in words)” value is listed as “could inhibit the proliferation”; the “Optical density value, 12 h” value is on record as 0.357 ± 0.024; the “Optical density value, 24 h” value is 0.397 ± 0.015; the “Optical density value, 48 h” value was found to be 0.588 ± 0.019. Moreover, the “Expression of HYP content in tissue versus model group” value in the assay with HYP is listed as “highly significantly different from the model group (*P<0.05)”. For the same molecule, the “Content of TGF-β1 in serum versus model group” value in the assay with TGF-β1 is reported as “highly significantly different from the model group (**P<0.01)”.
